The record followed here is ChEMBL document CHEMBL4507263, “Data for DCP probe BAY-474” (2021).

Series [1] has as its target Tyrosine-protein kinase Fgr (Homo sapiens) (UniProt P09769). The series can be described thus: Fgr (h) Millipore kinase activity assay. Particulars: Compound concentration 1.0 uM; call rule not given here.
The target in series [2] is Homeodomain-interacting protein kinase 3 (Homo sapiens) (UniProt Q9H422). The series can be described thus: HIPK3 (h) Millipore kinase activity assay. Conditions: Compound concentration 1.0 uM.
Series [3] deals with Mitogen-activated protein kinase 1 (Homo sapiens) (UniProt P28482). The series can be described thus: MAPK1 (h) Millipore kinase activity assay. Particulars: Compound concentration 1.0 uM.
The target in series [4] is Serine/threonine-protein kinase N2 (Homo sapiens) (UniProt Q16513). The series is described as follows: PRK2 (h) Millipore kinase activity assay. Conditions: Compound concentration 1.0 uM.
Series [5] deals with Protein-tyrosine kinase 2-beta (Homo sapiens) (UniProt Q14289). The series can be described thus: Pyk2 (h) Millipore kinase activity assay. Particulars: Compound concentration 1.0 uM.
The target in series [6] is Mitogen-activated protein kinase 12 (Homo sapiens) (UniProt P53778). The series is described as follows: SAPK3 (h) Millipore kinase activity assay. Particulars: Compound concentration 1.0 uM.
In series [7] the target is T1, D(4) dopamine receptor (Homo sapiens) (UniProt P21917).
T1 sequence (whole entry): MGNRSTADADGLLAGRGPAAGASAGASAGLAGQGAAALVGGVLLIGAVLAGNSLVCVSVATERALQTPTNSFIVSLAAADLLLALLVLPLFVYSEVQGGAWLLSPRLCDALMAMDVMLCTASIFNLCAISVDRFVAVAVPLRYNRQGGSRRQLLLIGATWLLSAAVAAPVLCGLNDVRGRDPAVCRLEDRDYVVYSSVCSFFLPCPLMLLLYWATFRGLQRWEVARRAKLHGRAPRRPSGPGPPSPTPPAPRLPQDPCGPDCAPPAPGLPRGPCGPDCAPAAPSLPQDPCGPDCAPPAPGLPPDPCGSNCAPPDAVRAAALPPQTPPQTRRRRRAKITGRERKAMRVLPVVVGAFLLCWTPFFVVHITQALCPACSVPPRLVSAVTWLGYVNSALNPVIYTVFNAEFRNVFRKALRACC
The series can be described thus: Inhibition of Dopamine D4.2 at 10 µM in the Eurofins-Panlabs radioligand binding assay (Eurofins_assay_219900). On the set-up: ligand concentration 0.5 nM. Conditions: Compound concentration 10.0 uM.

Series [8] addresses Cysteinyl leukotriene receptor 1 (Homo sapiens) (UniProt Q9Y271). The series is described as follows: Inhibition of Leukotriene, Cysteinyl CysLT1 at 10 µM in the Eurofins-Panlabs radioligand binding assay (Eurofins_assay_250460). Set-up: ligand concentration 0.3 nM, non-specific ligand with concentration 0.3 µM Leukotriene D4, incubation time 30 min, incubation temperature 25 °C. Particulars: Compound concentration 10.0 uM.

Series [9] deals with Acetylcholine receptor subunit alpha (Homo sapiens) (UniProt P02708). The series can be described thus: Inhibition of Nicotinic Acetylcholine D1, Bungarotoxin at 10 µM in the Eurofins-Panlabs radioligand binding assay (Eurofins_assay_258700). Particulars: Compound concentration 10.0 uM.
Series [10] has as its target voltage-gated sodium channel, site 2 (Rattus norvegicus, UniProt F1LQQ7+O08562+O88420+O88457+P04774+P04775+P08104+P15389+P15390+Q62968). The series can be described thus: Inhibition of Sodium Channel, Site 2 at 10 µM in the Eurofins-Panlabs radioligand binding assay (Eurofins_assay_279510). It is filed as protein assay. Set-up: ligand concentration 5 nM, non-specific ligand with concentration 100 µM Veratridine, incubation time 60 min, incubation temperature 37 °C. Conditions: male, Wistar, rat whole brain (except cerebellum) membranes, probe [3H] Batrachotoxinin, compound concentration 10 uM.

For series [11], the target named is Alpha-1A adrenergic receptor (Homo sapiens) (UniProt P35348). Conditions: Rattus norvegicus; Compound concentration 10.0 uM.
Series [12] concerns the target Mu-type opioid receptor (Homo sapiens) (UniProt P35372). Conditions: Compound concentration 10.0 uM.
The target in series [13] is Protein-tyrosine kinase 6 (Homo sapiens) (UniProt Q13882). The series can be described thus: BRK (h) Millipore kinase activity assay. Particulars: Compound concentration 1.0 uM.
Series [14] concerns ALK tyrosine kinase receptor (Homo sapiens), Q9UM73 [C1156Y]. Particulars: Compound concentration 1000.0 nM.
For series [15], the target named is Aurora kinase A (Homo sapiens) (UniProt O14965). Conditions: Compound concentration 1000.0 nM.
The target of series [16] is Cyclin-dependent kinase 4 (Homo sapiens) (UniProt P11802). Particulars: Compound concentration 1000.0 nM.
For series [17], the target named is Dual specificity protein kinase CLK1 (Homo sapiens) (UniProt P49759). Conditions: Compound concentration 1000.0 nM.
The target of series [18] is Casein kinase I isoform gamma-1 (Homo sapiens) (UniProt Q9HCP0). Particulars: Compound concentration 1000.0 nM.
In series [19] the target is Receptor-type tyrosine-protein kinase FLT3 (Homo sapiens) (UniProt P36888). Particulars: Compound concentration 1000.0 nM.
For series [20], the target named is Homeodomain-interacting protein kinase 1 (Homo sapiens) (UniProt Q86Z02). Conditions: Compound concentration 1000.0 nM.
The target in series [21] is Mast/stem cell growth factor receptor Kit (Homo sapiens) (UniProt P10721). Conditions: Compound concentration 1000.0 nM.
Series [22] concerns the target LIM domain kinase 2 (Homo sapiens) (UniProt P53671). Conditions: Compound concentration 1000.0 nM.
Series [23] concerns the target Mitogen-activated protein kinase kinase kinase 13 (Homo sapiens) (UniProt O43283). Conditions: Compound concentration 1000.0 nM.
Series [24] concerns the target MAP/microtubule affinity-regulating kinase 4 (Homo sapiens) (UniProt Q96L34). Particulars: Compound concentration 1000.0 nM.
Series [25] concerns the target Tyrosine-protein kinase Mer (Homo sapiens) (UniProt Q12866). Particulars: Compound concentration 1000.0 nM.
The target in series [26] is Serine/threonine-protein kinase Nek2 (Homo sapiens) (UniProt P51955). Particulars: Compound concentration 1000.0 nM.
Series [27] has as its target Serine/threonine-protein kinase PAK 2 (Homo sapiens) (UniProt Q13177). Conditions: Compound concentration 1000.0 nM.
In series [28] the target is Cyclin-dependent kinase 18 (Homo sapiens) (UniProt Q07002). Particulars: Compound concentration 1000.0 nM.
Series [29] has as its target Phosphorylase b kinase regulatory subunit alpha, liver isoform (Homo sapiens) (UniProt P46019). Particulars: Compound concentration 1000.0 nM.
Series [30] deals with Phosphatidylinositol 4,5-bisphosphate 3-kinase catalytic subunit alpha isoform (Homo sapiens), P42336 [H1047L]. Conditions: Compound concentration 1000.0 nM.
Series [31] deals with Serine/threonine-protein kinase PLK1 (Homo sapiens) (UniProt P53350). Particulars: Compound concentration 1000.0 nM.
In series [32] the target is Proto-oncogene tyrosine-protein kinase receptor Ret (Homo sapiens) (UniProt P07949). Conditions: Compound concentration 1000.0 nM.
In series [33] the target is Ribosomal protein S6 kinase alpha-3 (Homo sapiens, UniProt P51812). Particulars: Compound concentration 1000.0 nM.
Series [34] addresses High affinity nerve growth factor receptor (Homo sapiens) (UniProt P04629). Particulars: Compound concentration 1000.0 nM.
The target of series [35] is Tyrosine-protein kinase Yes (Homo sapiens) (UniProt P07947). Conditions: Compound concentration 1000.0 nM.
The target of series [36] is Serine/threonine-protein kinase 25 (Homo sapiens) (UniProt O00506). Conditions: Compound concentration 1000.0 nM.

One may read the inhibition as the change of the read-out against control, counted positive when it falls.

Tyrosine-protein kinase Yes (Homo sapiens), sequence (P07947 2-543 limits assumed): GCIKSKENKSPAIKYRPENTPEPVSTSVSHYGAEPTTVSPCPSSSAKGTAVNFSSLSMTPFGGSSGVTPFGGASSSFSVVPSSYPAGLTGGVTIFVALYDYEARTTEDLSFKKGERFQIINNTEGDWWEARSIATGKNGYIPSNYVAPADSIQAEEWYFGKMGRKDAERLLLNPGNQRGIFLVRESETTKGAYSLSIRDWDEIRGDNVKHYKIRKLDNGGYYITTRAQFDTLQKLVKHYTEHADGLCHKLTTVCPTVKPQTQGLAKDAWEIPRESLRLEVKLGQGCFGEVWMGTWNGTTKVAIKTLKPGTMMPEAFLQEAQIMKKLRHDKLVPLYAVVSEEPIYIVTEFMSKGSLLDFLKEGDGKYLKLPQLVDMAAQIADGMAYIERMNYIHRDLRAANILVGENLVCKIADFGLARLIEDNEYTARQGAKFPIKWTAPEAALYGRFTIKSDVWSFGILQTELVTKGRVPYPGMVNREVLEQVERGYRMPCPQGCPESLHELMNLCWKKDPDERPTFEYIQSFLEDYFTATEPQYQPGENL
Aurora kinase A (Homo sapiens), sequence (O14965 whole entry): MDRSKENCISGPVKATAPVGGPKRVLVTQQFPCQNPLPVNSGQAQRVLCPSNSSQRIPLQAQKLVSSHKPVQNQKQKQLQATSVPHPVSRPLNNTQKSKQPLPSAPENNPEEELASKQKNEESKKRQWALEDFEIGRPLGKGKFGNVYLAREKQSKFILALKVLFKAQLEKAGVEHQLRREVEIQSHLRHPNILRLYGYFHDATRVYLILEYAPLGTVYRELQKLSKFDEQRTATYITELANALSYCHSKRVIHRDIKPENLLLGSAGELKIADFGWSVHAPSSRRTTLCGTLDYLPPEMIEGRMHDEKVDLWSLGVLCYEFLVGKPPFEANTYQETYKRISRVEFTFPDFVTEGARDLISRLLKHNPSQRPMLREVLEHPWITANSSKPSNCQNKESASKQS
Protein-tyrosine kinase 6 (Homo sapiens), sequence (Q13882 whole entry, looked up): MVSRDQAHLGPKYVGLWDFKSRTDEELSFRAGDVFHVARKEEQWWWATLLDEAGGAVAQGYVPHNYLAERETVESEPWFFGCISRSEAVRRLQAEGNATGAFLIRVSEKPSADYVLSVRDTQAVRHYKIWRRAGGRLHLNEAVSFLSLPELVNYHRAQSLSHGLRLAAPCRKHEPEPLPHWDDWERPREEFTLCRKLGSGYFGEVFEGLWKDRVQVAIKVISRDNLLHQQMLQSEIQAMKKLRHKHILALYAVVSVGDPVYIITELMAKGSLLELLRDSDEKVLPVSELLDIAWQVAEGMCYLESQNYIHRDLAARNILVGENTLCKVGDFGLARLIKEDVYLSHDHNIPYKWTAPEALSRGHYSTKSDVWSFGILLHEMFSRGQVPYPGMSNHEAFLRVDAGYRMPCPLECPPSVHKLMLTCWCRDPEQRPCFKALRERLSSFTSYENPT
Mu-type opioid receptor (Homo sapiens), sequence (P35372 whole entry): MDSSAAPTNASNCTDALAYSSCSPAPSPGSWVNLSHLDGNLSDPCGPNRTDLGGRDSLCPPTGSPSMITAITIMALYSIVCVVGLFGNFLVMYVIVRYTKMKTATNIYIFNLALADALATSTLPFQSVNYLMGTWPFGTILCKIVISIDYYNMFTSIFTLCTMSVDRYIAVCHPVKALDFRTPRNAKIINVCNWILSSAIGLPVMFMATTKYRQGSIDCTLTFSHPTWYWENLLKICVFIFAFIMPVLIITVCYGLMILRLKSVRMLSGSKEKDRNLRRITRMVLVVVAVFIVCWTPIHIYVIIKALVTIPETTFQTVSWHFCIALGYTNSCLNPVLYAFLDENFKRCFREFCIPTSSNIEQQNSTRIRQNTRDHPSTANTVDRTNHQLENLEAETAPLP
Cyclin-dependent kinase 18 (Homo sapiens), sequence (Q07002 whole entry, canonical isoform): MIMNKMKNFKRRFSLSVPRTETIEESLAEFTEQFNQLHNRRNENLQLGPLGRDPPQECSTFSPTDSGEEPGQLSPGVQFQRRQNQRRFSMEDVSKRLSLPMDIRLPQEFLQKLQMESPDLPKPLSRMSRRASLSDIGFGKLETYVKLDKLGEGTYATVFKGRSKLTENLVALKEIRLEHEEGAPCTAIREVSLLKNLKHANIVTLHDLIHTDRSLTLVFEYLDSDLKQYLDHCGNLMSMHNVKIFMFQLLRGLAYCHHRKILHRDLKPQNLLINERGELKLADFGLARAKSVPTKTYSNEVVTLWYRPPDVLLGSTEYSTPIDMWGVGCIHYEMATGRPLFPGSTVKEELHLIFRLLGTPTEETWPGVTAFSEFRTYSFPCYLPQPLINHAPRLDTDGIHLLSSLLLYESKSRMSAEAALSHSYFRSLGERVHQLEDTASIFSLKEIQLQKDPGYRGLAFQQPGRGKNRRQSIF
Homeodomain-interacting protein kinase 1 (Homo sapiens), sequence (Q86Z02 whole entry, looked up): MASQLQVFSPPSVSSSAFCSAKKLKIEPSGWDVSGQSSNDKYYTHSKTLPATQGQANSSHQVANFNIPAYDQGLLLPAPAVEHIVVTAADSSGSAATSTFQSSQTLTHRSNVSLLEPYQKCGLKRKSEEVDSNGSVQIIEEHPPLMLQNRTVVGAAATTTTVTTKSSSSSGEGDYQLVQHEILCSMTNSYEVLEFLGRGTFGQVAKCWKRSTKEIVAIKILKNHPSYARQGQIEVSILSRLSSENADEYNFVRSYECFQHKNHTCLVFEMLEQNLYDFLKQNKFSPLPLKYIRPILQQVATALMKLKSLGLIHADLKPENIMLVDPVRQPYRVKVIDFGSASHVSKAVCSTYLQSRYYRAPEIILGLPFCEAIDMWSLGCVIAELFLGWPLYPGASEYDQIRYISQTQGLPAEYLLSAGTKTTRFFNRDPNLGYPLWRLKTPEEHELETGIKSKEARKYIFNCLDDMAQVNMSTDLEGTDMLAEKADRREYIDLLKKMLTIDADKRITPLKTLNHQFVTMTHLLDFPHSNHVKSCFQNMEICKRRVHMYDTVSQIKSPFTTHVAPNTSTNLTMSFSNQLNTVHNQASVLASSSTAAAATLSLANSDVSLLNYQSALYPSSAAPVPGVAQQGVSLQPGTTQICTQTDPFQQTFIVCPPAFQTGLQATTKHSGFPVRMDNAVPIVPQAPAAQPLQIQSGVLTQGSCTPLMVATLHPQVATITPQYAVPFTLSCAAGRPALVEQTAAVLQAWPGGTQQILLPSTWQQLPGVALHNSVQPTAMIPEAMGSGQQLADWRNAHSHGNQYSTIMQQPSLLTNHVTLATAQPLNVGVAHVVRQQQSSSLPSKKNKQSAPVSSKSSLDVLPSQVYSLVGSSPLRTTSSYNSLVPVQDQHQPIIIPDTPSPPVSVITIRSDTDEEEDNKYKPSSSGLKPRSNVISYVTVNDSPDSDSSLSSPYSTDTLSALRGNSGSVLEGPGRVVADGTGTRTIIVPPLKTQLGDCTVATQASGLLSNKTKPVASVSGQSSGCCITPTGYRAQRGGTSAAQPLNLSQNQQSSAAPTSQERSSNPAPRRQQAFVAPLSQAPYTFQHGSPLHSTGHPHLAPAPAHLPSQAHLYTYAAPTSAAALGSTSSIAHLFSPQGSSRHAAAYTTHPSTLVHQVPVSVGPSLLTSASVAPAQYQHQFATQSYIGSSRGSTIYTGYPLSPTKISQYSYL
Dual specificity protein kinase CLK1 (Homo sapiens), sequence (P49759 whole entry, looked up, canonical isoform): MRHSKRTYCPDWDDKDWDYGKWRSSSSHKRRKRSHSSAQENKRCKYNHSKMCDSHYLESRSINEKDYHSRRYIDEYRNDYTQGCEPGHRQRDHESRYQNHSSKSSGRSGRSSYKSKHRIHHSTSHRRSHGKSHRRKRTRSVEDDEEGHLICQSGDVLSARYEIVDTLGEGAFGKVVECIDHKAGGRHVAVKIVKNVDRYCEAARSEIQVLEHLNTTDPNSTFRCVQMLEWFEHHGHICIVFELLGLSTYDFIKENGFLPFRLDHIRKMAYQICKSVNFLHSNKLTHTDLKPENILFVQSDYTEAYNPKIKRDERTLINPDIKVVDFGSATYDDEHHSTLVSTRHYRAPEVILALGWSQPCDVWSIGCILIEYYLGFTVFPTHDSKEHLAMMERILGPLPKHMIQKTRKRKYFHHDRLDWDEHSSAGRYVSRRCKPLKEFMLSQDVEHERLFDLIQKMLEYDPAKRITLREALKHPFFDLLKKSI
Mast/stem cell growth factor receptor Kit (Homo sapiens), sequence (P10721 whole entry, the tested form may be a part): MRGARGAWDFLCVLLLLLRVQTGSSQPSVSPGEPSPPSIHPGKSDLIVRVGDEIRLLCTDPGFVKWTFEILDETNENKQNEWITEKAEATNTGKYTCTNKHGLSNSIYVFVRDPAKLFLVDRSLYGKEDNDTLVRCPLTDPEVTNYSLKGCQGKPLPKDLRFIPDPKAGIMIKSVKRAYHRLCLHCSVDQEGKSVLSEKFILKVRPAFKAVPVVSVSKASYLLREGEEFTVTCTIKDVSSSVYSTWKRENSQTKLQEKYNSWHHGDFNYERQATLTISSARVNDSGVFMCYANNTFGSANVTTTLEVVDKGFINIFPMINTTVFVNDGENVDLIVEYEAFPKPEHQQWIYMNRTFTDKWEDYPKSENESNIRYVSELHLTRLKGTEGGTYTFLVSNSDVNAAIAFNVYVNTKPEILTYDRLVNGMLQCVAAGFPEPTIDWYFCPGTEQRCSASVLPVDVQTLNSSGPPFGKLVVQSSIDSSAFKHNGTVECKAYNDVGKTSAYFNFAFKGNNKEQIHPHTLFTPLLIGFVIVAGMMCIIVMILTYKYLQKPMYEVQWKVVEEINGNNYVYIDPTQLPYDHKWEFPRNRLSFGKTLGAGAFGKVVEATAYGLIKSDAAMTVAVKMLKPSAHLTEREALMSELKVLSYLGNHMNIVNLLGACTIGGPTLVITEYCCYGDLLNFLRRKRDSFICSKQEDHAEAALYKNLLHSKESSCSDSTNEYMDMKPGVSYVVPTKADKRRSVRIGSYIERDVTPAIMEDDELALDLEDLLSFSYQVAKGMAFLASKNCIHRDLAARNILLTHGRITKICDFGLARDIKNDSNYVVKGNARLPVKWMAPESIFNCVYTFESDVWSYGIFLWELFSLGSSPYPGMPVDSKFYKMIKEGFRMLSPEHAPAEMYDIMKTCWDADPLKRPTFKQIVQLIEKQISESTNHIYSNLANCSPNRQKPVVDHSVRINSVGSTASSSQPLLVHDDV

As to `CC1=C(C#N)C(c2ccc3[nH]nc(C)c3c2)C(C#N)=C(C)N1` [BAY-474], the inhibition in series [1] is 14%; in series [2], -4%; in series [3], 4%; in series [4], 9%; in series [5], 17%; in series [6] it was 8%. Besides, the inhibition in series [7] was -2%; in [8] it was 8%; in [9], 0%; in series [11], 1%; in series [12] it was -9%; in series [13], -7%. Further, the inhibition at 60 min, 10 µM in series [10] is reported as -1% (not active).
Take `CC1=C(C#N)[C@@H](c2ccc3[nH]nc(C)c3c2)C(C#N)=C(c2ccc(Cl)cc2)N1` [BAY-827]: the residual activity in series [14] was 100%; in [15] it was 100%; in series [16], 96.1%; in series [17] it was 100%; in series [18] it was 100%; in series [19], 100%. The residual activity in [20] was 56.7%; in series [21] it was 71.2%; in series [22] it was 91.1%; in series [23], 100%; in [24], 100%; in series [25], 100%. Also, the residual activity in series [26], in series [27], in series [28], in series [29], in series [30] and in series [31] was 100% throughout. Besides, the residual activity in series [32] is 100%; in series [33], 86.2%; in [34], 84.6%; in series [35], 100%; in series [36], 100%.
